From patent US20040106838A1, “Use of ionic liquids to separate diolefins” (NOVA Chemicals (International) S.A., priority 2002, published 2004)
Read-outs that look alike come from different tables or passages of the source.

How the values were obtained:
[1] = C5 hydrocarbon solubility in bmim+ BF4− ionic liquid
Experimental: The testing apparatus consisted of a flat-bottomed florence flask with a graduated neck. The flask was charged with 75 mL of bmim^+ BF4^−, the level being recorded. A known quantity of a C5 hydrocarbon was then added to the flask and the flask was sealed. The overall liquid level and the location of the liquid-liquid interfacial meniscus were recorded. The mixture was then agitated to contact the two liquids and the two phases were allowed to separate. The locations of all meniscuses were then recorded. Agitation and phase separation was then repeated until the liquid levels remained unchanged. The volume change of the hydrocarbon phase corresponds to the quantity of hydrocarbon dissolved in the ionic liquid. The testing was conducted at ambient temperature.

[2] = Liquid-liquid extraction of butadiene from mixed C4 by bmim+ BF4− ionic liquid; type: physicochemical; conditions: room temperature
Source text: The testing apparatus consists of three sample cylinders (150 cc, 10 cc, and 50 cc) connected by ⅜-inch tubing (in the order listed) with valves allowing for isolation of each cylinder. A gas syringe is used to take C4 samples for GC analysis. Various mixed C4S were used which contained varying quantities of 1,3-butadiene (ranging from 15-85 weight %). The composition range of the non-butadiene fraction of the standards was (in weight %) n-butane 29-33%, 1-butene 20-33%, isobutene 0-36%, trans-2-butene 7-17%, and cis-2-butene 5-17%.
To measure C4 extraction, 40 mL of bmim^+ BF4^− absorbent is loaded into the 150 cc cylinder and the 10 cc and 150 cc cylinders are then evacuated. The 10 cc cylinder is then isolated and charged with mixed C4 liquid. This liquid is then added to the 150 cc cylinder. The 10 cc cylinder is then isolated and a second 10 cc is then added to the and subsequently added to the 150 cc cylinder and the 150 cc cylinder is isolated. The apparatus is then agitated to maximize contact between the C4 and ionic liquid phases within the 150 cc cylinder. Following agitation, the liquid is allowed to sit 12 hours to allow the two liquid phases to separate.
To determine the level and composition of C4 in the ionic liquid, a 10 cc sample of ionic liquid from the 150 cc cylinder is charged into the 10 cc cylinder. The 150 cc cylinder is then isolated and the 10 cc ionic liquid sample is charged to the 50 cc cylinder, which is then isolated. The 50 cc cylinder is then heated and the gas syringe is used to collect C4 gas evolving from the ionic liquid. The collected gas is analyzed by GC.
These pseudo-equilibrium extraction experiments conducted for different butadiene concentrations yielded enhanced concentrations of butadiene in the C4 extracted by the ionic liquid.

[3] = in 1-butyl-3-methylimidazolium tetrafluoroborate (bmim+ BF4−), ambient temperature
[4] = solubility in bmim+ BF4−, ambient temperature

## CCC(C)C [Isopentane, isopentane]
[1]
  Solubility (mol C5/L Ionic Liquid): 0.034 mol C5/L Ionic Liquid

## C=CC(=C)C [Isoprene, isoprene]
[1]; [3]
  Solubility (mol C5/L Ionic Liquid): 0.611 mol C5/L Ionic Liquid
[1]; [4]
  Selectivity Over 2-Methyl-2-Butene: 1.7
  Selectivity Over Isopentane: 18.0

## C=CC=C [Butadiene, 1,3-butadiene]
[2]; Butadiene Concentration in Feed 15 wt %
  Butadiene Concentration in Extracted C4 (wt %): 37.6 wt %
[2]; Butadiene Concentration in Feed 30 wt %
  Butadiene Concentration in Extracted C4 (wt %): 43.3 wt %
[2]; Butadiene Concentration in Feed 50 wt %
  Butadiene Concentration in Extracted C4 (wt %): 74.1 wt %
[2]; Butadiene Concentration in Feed 70 wt %
  Butadiene Concentration in Extracted C4 (wt %): 82.0 wt %
[2]; Butadiene Concentration in Feed 85 wt %
  Butadiene Concentration in Extracted C4 (wt %): 91.8 wt %

## CC=C(C)C [2-Methyl-2-Butene, 2-methyl-2-butene]
[1]; [3]
  Solubility (mol C5/L Ionic Liquid): 0.360 mol C5/L Ionic Liquid
[1]; [4]
  Selectivity Over Isopentane: 10.6
